Results taken from the NIST ThermoML archive (doi:10.1021/je201009c).

Assay: xn = mol fraction of the nth substance listed
Conditions: for surface tension liquid-gas: Capillary rise; for viscosity / mass density: 100.8 kPa, Liquid; for viscosity: Falling or rolling sphere viscometry; for mass density: Vibrating tube method

CC(=O)OCc1ccccc1 [benzyl ethanoate] + CCO
Conditions | mass density [kg/m3] | surface tension liquid-gas [mN/m] | viscosity [mPa·s]
293.15 K, x2 = 0 | 1055.81 | 37.3 | 2.324
293.15 K, x2 = 0.0502 | 1050.61 | 36.3 | 2.18
293.15 K, x2 = 0.1 | 1044.89 | 35.4 | 2.063
293.15 K, x2 = 0.1498 | 1038.77 | 34.4 | 1.962
293.15 K, x2 = 0.1998 | 1032.15 | 33.4 | 1.879
293.15 K, x2 = 0.2499 | 1025.14 | 32.5 | 1.808
293.15 K, x2 = 0.2998 | 1017.51 | 31.6 | 1.736
293.15 K, x2 = 0.35 | 1009.27 | 30.8 | 1.672
293.15 K, x2 = 0.4 | 1000.55 | 30 | 1.613
293.15 K, x2 = 0.4501 | 991.15 | 29.3 | 1.551
293.15 K, x2 = 0.5 | 980.94 | 28.6 | 1.49
293.15 K, x2 = 0.5499 | 969.73 | 27.9 | 1.439
293.15 K, x2 = 0.6 | 957.31 | 27.2 | 1.392
293.15 K, x2 = 0.65 | 943.77 | 26.7 | 1.347
293.15 K, x2 = 0.7 | 928.69 | 26.2 | 1.305
293.15 K, x2 = 0.7499 | 912.06 | 25.8 | 1.267
293.15 K, x2 = 0.7999 | 893.44 | 25.2 | 1.232
293.15 K, x2 = 0.85 | 872.42 | 24.5 | 1.202
293.15 K, x2 = 0.9 | 848.54 | 23.8 | 1.188
293.15 K, x2 = 0.95 | 821.38 | 23.1 | 1.178
303.15 K, x2 = 0 | 1046.74 | 35.6 | 1.836
303.15 K, x2 = 0.0502 | 1041.18 | 34.8 | 1.75
303.15 K, x2 = 0.1 | 1035.33 | 34 | 1.663
303.15 K, x2 = 0.1498 | 1029.09 | 33.2 | 1.595
303.15 K, x2 = 0.1998 | 1022.42 | 32.4 | 1.534
303.15 K, x2 = 0.2499 | 1015.3 | 31.6 | 1.477
303.15 K, x2 = 0.2998 | 1007.78 | 30.8 | 1.42
303.15 K, x2 = 0.35 | 999.68 | 30 | 1.375
303.15 K, x2 = 0.4 | 990.86 | 29.2 | 1.327
303.15 K, x2 = 0.4501 | 981.38 | 28.5 | 1.281
303.15 K, x2 = 0.5 | 971.11 | 27.8 | 1.233
303.15 K, x2 = 0.5499 | 959.94 | 27.1 | 1.194
303.15 K, x2 = 0.6 | 947.61 | 26.4 | 1.151
303.15 K, x2 = 0.65 | 933.97 | 25.8 | 1.115
303.15 K, x2 = 0.7 | 919.03 | 25.2 | 1.077
303.15 K, x2 = 0.7499 | 902.5 | 24.8 | 1.038
303.15 K, x2 = 0.7999 | 883.9 | 24.2 | 1.009
303.15 K, x2 = 0.85 | 863.07 | 23.6 | 0.989
303.15 K, x2 = 0.9 | 839.36 | 22.9 | 0.982
303.15 K, x2 = 0.95 | 812.21 | 22.2 | 0.975
313.15 K, x2 = 0 | 1037.42 | 34.3 | 1.474
313.15 K, x2 = 0.0502 | 1031.85 | 33.6 | 1.413
313.15 K, x2 = 0.1 | 1025.96 | 32.8 | 1.362
313.15 K, x2 = 0.1498 | 1019.7 | 32 | 1.308
313.15 K, x2 = 0.1998 | 1012.98 | 31.3 | 1.265
313.15 K, x2 = 0.2499 | 1005.82 | 30.5 | 1.226
313.15 K, x2 = 0.2998 | 998.2 | 29.8 | 1.181
313.15 K, x2 = 0.35 | 989.97 | 29.1 | 1.143
313.15 K, x2 = 0.4 | 981.2 | 28.4 | 1.101
313.15 K, x2 = 0.4501 | 971.7 | 27.7 | 1.067
313.15 K, x2 = 0.5 | 961.42 | 27 | 1.029
313.15 K, x2 = 0.5499 | 950.19 | 26.4 | 0.999
313.15 K, x2 = 0.6 | 937.83 | 25.8 | 0.964
313.15 K, x2 = 0.65 | 924.36 | 25.2 | 0.93
313.15 K, x2 = 0.7 | 909.51 | 24.6 | 0.891
313.15 K, x2 = 0.7499 | 893.04 | 24 | 0.867
313.15 K, x2 = 0.7999 | 874.6 | 23.4 | 0.841
313.15 K, x2 = 0.85 | 853.75 | 22.8 | 0.823
313.15 K, x2 = 0.9 | 830.17 | 22.1 | 0.812
313.15 K, x2 = 0.95 | 803.27 | 21.4 | 0.808
323.15 K, x2 = 0 | 1027.51 | 33.2 | 1.256
323.15 K, x2 = 0.0502 | 1021.88 | 32.5 | 1.22
323.15 K, x2 = 0.1 | 1015.97 | 31.8 | 1.187
323.15 K, x2 = 0.1498 | 1009.69 | 31.1 | 1.154
323.15 K, x2 = 0.1998 | 1002.94 | 30.4 | 1.12
323.15 K, x2 = 0.2499 | 995.85 | 29.6 | 1.086
323.15 K, x2 = 0.2998 | 988.26 | 28.9 | 1.05
323.15 K, x2 = 0.35 | 980.03 | 28.2 | 1.015
323.15 K, x2 = 0.4 | 971.24 | 27.5 | 0.979
323.15 K, x2 = 0.4501 | 961.72 | 26.7 | 0.943
323.15 K, x2 = 0.5 | 951.49 | 26 | 0.911
323.15 K, x2 = 0.5499 | 940.31 | 25.3 | 0.882
323.15 K, x2 = 0.6 | 927.98 | 24.7 | 0.853
323.15 K, x2 = 0.65 | 914.58 | 24.1 | 0.825
323.15 K, x2 = 0.7 | 899.72 | 23.5 | 0.795
323.15 K, x2 = 0.7499 | 883.26 | 22.9 | 0.77
323.15 K, x2 = 0.7999 | 864.86 | 22.3 | 0.743
323.15 K, x2 = 0.85 | 844.15 | 21.7 | 0.723
323.15 K, x2 = 0.9 | 820.71 | 21 | 0.704
323.15 K, x2 = 0.95 | 794.02 | 20.3 | 0.692
